assay: recombinant barcode read abundance after kanamycin selection (control-corrected) (log10(CPM+1)); higher = more efficient recombination; sequences stand for … in AGTGCAGAGAAAATCGGCCAGTTTTCTCTGCCTGCAGTCCGCATGCCGT…AGATTTATGCAGCGGACTGCCTTTCTCCCAAAGTGATAAACCGGACAGTATCATGGACCGGTTTTCCCGGTAATCCGTATTTGCAAGGTTGGTTTCACT; site = the 11-nt target
Procedure, shortened: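 Recombination efficiency draws on barcodes counted at recombinant junctions in a pooled E. coli screen of targets paired with IS621 bridge RNA target-binding loops. The counts were converted to counts per million, averaged and corrected against the chloramphenicol/ampicillin LB agar control, then reported as log10(CPM+1). Selection plates held chloramphenicol/ampicillin/kanamycin with 0.1 mM IPTG, with two replicates per condition.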
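Note: IS621 recombinase and bridge RNA in Escherichia coli cells.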

Row | Sequence | recombinant barcode read abundance (log10)
1 | GGTCCTACTTGGGTTCTAACCTGTTGCCT (site GTTCCTACTAG) | 0.187
2 | GGTCGAACTTGGGTTCTAACCTGTTGCCT (site GGTCAAACTAG) | 0.107
3 | GGTCGAACTTGGGTTCTAACCTGTTGCCT (site GGTCCAACTAG) | 0.127
4 | GGTCGAACTTGGGTTCTAACCTGTTGCCT (site GGTCGAACTAG) | 0.624
5 | GGTCGAACTTGGGTTCTAACCTGTTGCCT (site GGTCTAACTAG) | 0.0343
6 | GGTCGCTCTTGGGTTCTAACCTGTTGCCT (site GGACGCTCTAG) | 0.0961
7 | GGTCGCTCTTGGGTTCTAACCTGTTGCCT (site GGTCGCTCTAG) | 1.35
8 | GGTGACTCTTGGGTTCTAACCTGTTGCCT (site GGTGACTCTAG) | 1.15
9 | GGTGACTCTTGGGTTCTAACCTGTTGCCT (site GGTGGATCTAG) | 0.114
10 | GGTGCTCCTTGGGTTCTAACCTGTTGCAA (site GGTGCTCCTAT) | 0.0718
11 | GGTGCTCCTTGGGTTCTAACCTGTTGCAA (site GGTGCTCCTCT) | 0.0634
12 | GGTGCTCCTTGGGTTCTAACCTGTTGCAA (site GGTGCTCCTGT) | 0.0326
13 | GGTGCTCCTTGGGTTCTAACCTGTTGCAA (site GGTGCTCCTTT) | 0.3
14 | GGTGCTCCTTGGGTTCTAACCTGTTGCAG (site GGTGCTCCTAT) | 0.0917
15 | GGTGCTCCTTGGGTTCTAACCTGTTGCAG (site GGTGCTCCTCT) | 0.88
16 | GGTGCTCCTTGGGTTCTAACCTGTTGCAG (site GGTGCTCCTGT) | 0
17 | GGTGCTCCTTGGGTTCTAACCTGTTGCAG (site GGTGCTCCTTT) | 0.0255
18 | GGTGCTCCTTGGGTTCTAACCTGTTGCAT (site GGTGCTCCTAT) | 0.914
19 | GGTGCTCCTTGGGTTCTAACCTGTTGCAT (site GGTGCTCCTCT) | 0.017
20 | GGTGCTCCTTGGGTTCTAACCTGTTGCAT (site GGTGCTCCTGT) | 0.0976
21 | GGTGCTCCTTGGGTTCTAACCTGTTGCAT (site GGTGCTCCTTT) | 0.0242
22 | GGTGGGACTTGGGTTCTAACCTGTTGCAC (site AAATCTGCTAG) | 0.259

Row | Sequence | recombinant barcode read abundance (log10)
23 | GGTGGGACTTGGGTTCTAACCTGTTGCAC (site GGTGGGACTGT) | 1.95
24 | GGTTCATCTTGGGTTCTAACCTGTTGCCA (site GGCTCCTCTTG) | 0.0691
25 | GGTTCATCTTGGGTTCTAACCTGTTGCCA (site GGTTCATCTTG) | 0.0738
26 | GGTTCCTCTTGGGTTCTAACCTGTTGCGG (site GGTTCCTCTCC) | 0.933
27 | GGTTCCTCTTGGGTTCTAACCTGTTGCGG (site TACCTAACTAA) | 0.118
28 | GGTTGACCTTGGGTTCTAACCTGTTGCAT (site GGTTCACCTCT) | 0.226
29 | GGTTGACCTTGGGTTCTAACCTGTTGCAT (site GGTTGACCTAT) | 0.913
30 | GTAACCTCTTGGGTTCTAACCTGTTGCCC (site GTAACCTCTAG) | 0.928
31 | GTAACCTCTTGGGTTCTAACCTGTTGCCC (site GTAACCTCTCG) | 0.179
32 | GTAACCTCTTGGGTTCTAACCTGTTGCCC (site GTAACCTCTGG) | 1.97
33 | GTAACCTCTTGGGTTCTAACCTGTTGCCC (site GTAACCTCTTG) | 0.128
34 | GTAACTACTTGGGTTCTAACCTGTTGCAC (site CTAATTACTGT) | 0.0302
35 | GTAACTACTTGGGTTCTAACCTGTTGCAC (site GTAACTACTGT) | 0.926
36 | GTAACTACTTGGGTTCTAACCTGTTGCGG (site GTAACTACTCC) | 2.1
37 | GTAACTACTTGGGTTCTAACCTGTTGCGG (site GTCACTACTAC) | 0.0797
38 | GTAACTCCTTGGGTTCTAACCTGTTGCCT (site GTAACTCCTAG) | 0.487
39 | GTAACTCCTTGGGTTCTAACCTGTTGCCT (site TGAACTCCTAG) | 0.041
40 | GTAACTGCTTGGGTTCTAACCTGTTGCCT (site GTAAATGCTAG) | 0.373
41 | GTAACTGCTTGGGTTCTAACCTGTTGCCT (site GTAACTGCTAG) | 0.941
42 | GTAACTGCTTGGGTTCTAACCTGTTGCCT (site GTAAGTGCTAG) | 0.084
43 | GTAACTGCTTGGGTTCTAACCTGTTGCCT (site GTAATTGCTAG) | 0.0184
44 | GTAAGGACTTGGGTTCTAACCTGTTGCTT (site GTAAGAACTAA) | 0.738

Row | Sequence | recombinant barcode read abundance (log10)
45 | GTAAGGACTTGGGTTCTAACCTGTTGCTT (site GTAAGCACTAA) | 0.156
46 | GTAAGGACTTGGGTTCTAACCTGTTGCTT (site GTAAGGACTAA) | 1.16
47 | GTAAGGACTTGGGTTCTAACCTGTTGCTT (site GTAAGTACTAA) | 0.0109
48 | GTAAGTACTTGGGTTCTAACCTGTTGCCA (site ATAAGTCCTTG) | 0.063
49 | GTAAGTACTTGGGTTCTAACCTGTTGCCA (site GTAAGTACTTG) | 1.54
50 | GTAATTACTTGGGTTCTAACCTGTTGCCT (site GTAATTACTAG) | 0.441
51 | GTAATTACTTGGGTTCTAACCTGTTGCCT (site TACGCACCTTC) | 0.0355
52 | GTACAGCCTTGGGTTCTAACCTGTTGCCT (site GTACAGCCTAG) | 1.35
53 | GTACAGCCTTGGGTTCTAACCTGTTGCCT (site GTACCGCCTAG) | 0.0712
54 | GTACAGCCTTGGGTTCTAACCTGTTGCCT (site GTACGGCCTAG) | 0.0431
55 | GTACAGCCTTGGGTTCTAACCTGTTGCCT (site GTACTGCCTAG) | 0.155
56 | GTACATCCTTGGGTTCTAACCTGTTGCGT (site AAGGTCACTCA) | 0.0803
57 | GTACATCCTTGGGTTCTAACCTGTTGCGT (site GTACATCCTAC) | 2.13
58 | GTACGCGCTTGGGTTCTAACCTGTTGCGT (site CTACGCGCTAA) | 0.392
59 | GTACGCGCTTGGGTTCTAACCTGTTGCGT (site GTACGCGCTAC) | 1.14
60 | GTACGCTCTTGGGTTCTAACCTGTTGCTT (site GGAAGCTCTAA) | 0
61 | GTACGCTCTTGGGTTCTAACCTGTTGCTT (site GTACGCTCTAA) | 0.218
62 | GTACGGTCTTGGGTTCTAACCTGTTGCAT (site GTACGATCTTT) | 0.107
63 | GTACGGTCTTGGGTTCTAACCTGTTGCAT (site GTACGGTCTAT) | 2
64 | GTACGTCCTTGGGTTCTAACCTGTTGCTT (site GTACGTCCTAA) | 0.777
65 | GTACGTCCTTGGGTTCTAACCTGTTGCTT (site GTACGTCCTAC) | 0.143
66 | GTACGTCCTTGGGTTCTAACCTGTTGCTT (site GTACGTCCTAG) | 0.299

Row | Sequence | recombinant barcode read abundance (log10)
67 | GTACGTCCTTGGGTTCTAACCTGTTGCTT (site GTACGTCCTAT) | 0.374
68 | GTACTGCCTTGGGTTCTAACCTGTTGCCT (site GTACAGCCTAG) | 0.52
69 | GTACTGCCTTGGGTTCTAACCTGTTGCCT (site GTACCGCCTAG) | 0.366
70 | GTACTGCCTTGGGTTCTAACCTGTTGCCT (site GTACGGCCTAG) | 0.531
71 | GTACTGCCTTGGGTTCTAACCTGTTGCCT (site GTACTGCCTAG) | 1.28
72 | GTAGACACTTGGGTTCTAACCTGTTGCCG (site GTAAACACTCT) | 0.142
73 | GTAGACACTTGGGTTCTAACCTGTTGCCG (site GTAGACACTCG) | 1.28
74 | GTAGACCCTTGGGTTCTAACCTGTTGCCT (site ATAGACCCTAG) | 2.3
75 | GTAGACCCTTGGGTTCTAACCTGTTGCCT (site CTAGACCCTAG) | 1.16
76 | GTAGACCCTTGGGTTCTAACCTGTTGCCT (site GTAGACCCTAG) | 2.5
77 | GTAGACCCTTGGGTTCTAACCTGTTGCCT (site TTAGACCCTAG) | 1.85
78 | GTAGACCCTTGGGTTCTAACCTGTTGCGT (site GTAGACCCTAC) | 3.46
79 | GTAGACCCTTGGGTTCTAACCTGTTGCGT (site GTAGACCCTCA) | 0.309
80 | GTAGAGTCTTGGGTTCTAACCTGTTGCCT (site GAAGAGTCTAG) | 2.36
81 | GTAGAGTCTTGGGTTCTAACCTGTTGCCT (site GCAGAGTCTAG) | 1.94
82 | GTAGAGTCTTGGGTTCTAACCTGTTGCCT (site GGAGAGTCTAG) | 0.239
83 | GTAGAGTCTTGGGTTCTAACCTGTTGCCT (site GTAGAGTCTAG) | 2.84
84 | GTAGCAGCTTGGGTTCTAACCTGTTGCTC (site CTAGTAGCTGA) | 0.146
85 | GTAGCAGCTTGGGTTCTAACCTGTTGCTC (site GTAGCAGCTGA) | 1.4
86 | GTAGCGACTTGGGTTCTAACCTGTTGCCT (site ATAGGGACTAG) | 0.149
